“Also recorded” adds a separate entry of the source. Like-named read-outs stand apart in the source and are kept apart here.
How the values were obtained:
[1] = system: Balb/C mice; test: Cellular immune responses after HBsAg DNA vaccine (assay not specified); assay type: in vivo; conditions: as stated in Example 6
From the text: This experiment includes a plasmid that expresses HBsAg from the keratin 14 promoter. This was used to try and alter the expression of the antigen in different cell types and see if this affects the immune response. Mice were immunized twice.

[2] = system: Balb/C mice; test: ELISA for subclass of HBsAg specific antibody (IgG1/IgG2a); assay type: in vivo; conditions: Example 6; serum samples from different experiments; FIG. 15
[3] = system: Balb/C mice; test: CD8 IFN-g ELISA of spleen cells after HBsAg DNA vaccine; assay type: in vivo; conditions: Example 2; prime and boost
From the text: (§1) For immunization with the Hepatitis B surface antigen (HBsAg) a plasmid containing the HCMV promoter/enhancer was used to drive expression of the HBsAg. For one experiment we also employed a plasmid in which the keratin 14 promoter was used instead of the HCMV promoter. This promoter is expected to have a more restricted pattern of expression and be expressed only in the skin unlike the HCMV promoter that is expressed in many cell types.
(§2) The cream is a 5% solution.
Mice were immunized with a DNA vaccine containing a HBsAg expressing plasmid using either a high dose (1 ug) or low dose (50 ng) of vaccine. […] One group was also treated for three days (day 0, 1 and 2). […] Results shown in FIG. 1 are from the CD8 IFN-g ELISA. […] The values are the means from 4 individual mice.

[4] = system: Balb/C mice; test: Serum antibody ELISA (HBsAg) after HBsAg DNA vaccine; assay type: in vivo; conditions: Example 2; prime and boost, HBsAg plasmid with HCMV promoter; FIG. 3
Method: as §1, §2
Serum samples were assayed for antibodies using an BLISA assay. Falcon Pro Bind microtiter plates were coated overnight at 4° C. with antigen in PBS (phosphate buffered saline, BioWhittaker). For HBsAg BLISA the antigen was purified HBsAg (BioDesign) at 0.1 ug per well, and for HSV ELISAs the antigen was 5 ug per well of an infected cell extract (Advanced Biotechnolgies Incorporated). […]
Plates were washed 3× and a biotinylated goat anti-mouse antibody (Southern Biotechnology) diluted 1:8000 in dilution buffer was added to the plate and incubated for 1 hr at RT. […] Optical density was read at 450 nm. Endpoint titers for HBsAg were calculated by comparison of the samples with a standard of known titer.

[5] = system: Balb/C mice; test: Anti-sAg and anti-cAg antibody ELISAs after PMID with HBV sAg/cAg plasmid; assay type: in vivo; conditions: Example 7
[6] = system: Balb/C mice; assay type: in vivo; conditions: for g-IFN secretion: first experiment
Method: Two further experiments were performed to assess the efficacy of imiquimod (Aldara cream) as an adjuvant for particle-mediated immunization with DNA (PMD). Both experiments used a plasmid expressing HBV sAg and cAg as a test vaccine. […] Readouts included antibody titers and cytokine ELISPOTs to the two antigens.
Groups of 5-10 Balb/c mice were vaccinated on the shaved abdomen with one shot each on day 0 (prime only) or days 0 and 28 (prime and boost). PMID was administered using an ND5.5 device with a payload of 1 mg Au and a 35 bar cylinder. […] In experiment one, a small, unmnetered amount of Aldara was delivered at the indicated times using a cotton swab to rub the cream in. […] The control cream was an over the counter hand cream which contained many of the same ingredients as the Aldara base cream.
Mice were bled retro-orbitally at 4 weeks for prime/boost groups. Blood was collected by intracardiac puncture, and spleens were removed for cellular assays at sacrifice at either week 2 (prime only) or week 6 (boost+2 weeks). Sera were analyzed for anti-sAg and anti-cAg antibodies using in-house ELISAs. Spleen cells from individual mice were stimulated with protein or peptide for g-IFN and IL-4 ELISPOT assays. Three sets of antigen were used: 1) intact cAg from Biodesign; 2) a library of overlapping sAg peptides (15 mers offset by 3 amino acids synthesized by Chiron); and 3) an immunodominant peptide from sAg (amino acids 28-39) known to bind the MHC class I molecule Ld. Specific spot-forming cells were calculated by subtracting the number of spots generated with cells cultured in medium alone.

[7] = system: Balb/C mice; assay type: in vivo; conditions: Example 7; first experiment, prime only
[8] = system: Balb/C mice; test: IFN-g ELISPOT of spleen cells after HBsAg DNA vaccine; conditions: Example 2; prime and boost
[9] = system: Balb/C mice; test: Resiquimod adjuvant test: cellular immune responses (CD8 ELISPOT) after HBsAg DNA vaccine; assay type: in vivo; conditions: Example 16, topical
Method: Resiquimod is delivered topically to the abdominal skin of Balb/c mice on either day −2, −1, 0, 1, 2 or 3 relative to immunization on day 0. Immunization utilizes a DNA vaccine that expresses the Hepatitis B surface antigen so that cellular and antibody responses found after treatment with Resiquimod can be evaluated and compared to a wealth of historical data. The formulation consists of either a 0.05% cream, or a DMSO solution (approximately 5 mg/ml). Ideally both types of formula are tested. One half of the mice are sacrificed 7 days after immunization to measure cellular immune responses (CD8 ELISPOT). The remaining mice are bled 28 days after immunization, boosted with the same schedule as the priming immunization and then sacrificed 2 weeks later to test for antibody and cellular responses. Serum is used to test for antibody titer and to evaluation subclass distribution of IgG antibodies indicating the bias of the immune response.
For immunization DNA vaccine plasmids with a well-known immune response are employed. Plasmid WRG7128 is a likely choice which expresses the Hepatitis B surface antigen (HBsAg) using the HCMV promoter/enhancer and generates a cellular and antibody response.
Resiquimod is formulated as either a 0.05% cream, or a 5 mg/ml solution in DMSO. To apply the cream, it is rubbed onto the abdomens of mice using a cotton swab. […]

## CCCCC[C@H](O)/C=C/[C@H]1[C@H](O)CC(=O)[C@@H]1C/C=C\CCCC(=O)O [PGE2]
[1]
  cellular responses: can enhance cellular responses
[2]
  ratio of IgG1/IgG2a of HBsAg specific antibody: does not have the same effect overall

## CC(C)Cn1cnc2c(N)nc3ccccc3c21 [imiquimod, 1-(2-methyl-propyl)-1H-imidazo[4,5-c]quinolin-4-amine]
[3]
  cellular response (IFN-g ELISA): enhanced the responses
[4]
  antibody levels: strong reduction in antibody levels
[5]
  antibody titers / antibody responses to HBV sAg and cAg: little effect; also recorded: did not enhance antibody responses
[6]; Example 7, first experiment, compared with sAg peptide library response
  g-IFN ELISPOT response to class I-restricted peptide (CD8+ cells): comaparable responses were seen
[6]; Example 7, time after PMID
  optimal time point for augmenting g-IFN-secreting cells: about a day and upto 7 days after PMID
[6]; highest dose of DNA, delivered right before or right after
  g-IFN secretion: slightly inhibitory
[6]; highest dose of DNA, given 24 hours after
  g-IFN secretion: augments PMID
[6]; low doses of DNA, administration 24 hours post PMID
  g-IFN secretion: most effective
[6]; low doses of HBV-encoding DNA, all three time points
  g-IFN secretion: enhances g-IFN secretion
[7]
  IL-4 ELISPOTs / IL-4 secretion: little effect; also recorded: no effect
[8]
  cellular response (ELISPOTs): enhanced the responses

## CCOCc1nc2c(N)nc3ccccc3c2n1CC(C)(C)O [Resiquimod, 4-amino-2-ethoxymethyl-alpha,alpha-dimethyl-1H-imidazo [4,5-c]quinoline-1-ethanol]
[9]
  cellular immune response: boost in the cellular immune response
[9]; before or after immunization
  immune responses to the DNA vaccines: enhances immune responses
